Series [1] has as its system S. epidermidis ATCC 12228. Nature of the series: microbe, parasite or virus in culture. Format: cell-based. Here is the method: (§1) Bacterial strains used in this study were the Gram-positive S. aureus ATCC 25923, S. epidermidis ATCC 12228, B. megaterium BM11, S. [NT] 27591, E. faecalis ATCC 29212 and the Gram-negative E. coli ATCC 25922, P. aeruginosa ATCC 27853, A. baumannii ATCC 19606, E. coli D21 and P. aeruginosa PAO1. […] Bacterial cells in the mid log phase were diluted in Muller Hinton (MH) at a concentration of 2 × 10^6 cell/mL. […] Ciprofloxacin was used as antibiotic control. The plate was then incubated at 37 °C. MICs were obtained from three identical readings of four independent experiments.

Series [2] concerns P. aeruginosa PAO1. The experiment in a line: microbe, parasite or virus in culture. The format is cell-based. Here is the method: as §1
Series [3] deals with P. aeruginosa ATCC 27853. Nature of the series: microbe, parasite or virus in culture. The format is cell-based. On the procedure:
as §1

For series [4], the system named is S. aureus ATCC 25923. The experiment in a line: microbe, parasite or virus in culture. The format is cell-based. On the procedure: as §1
The subject of series [5] is S. agalactiae ATCC 27591. Nature of the series: microbe, parasite or virus in culture. The format is cell-based. Here is the method: as §1
In series [6] the test system is B. megaterium BM11. The experiment in a line: microbe, parasite or virus in culture. The format is cell-based. On the procedure:
as §1

The subject of series [7] is E. coli ATCC 25922. The experiment in a line: microbe, parasite or virus in culture. Format: cell-based. On the procedure:
as §1

Series [8] relates to E. coli D21. Nature of the series: microbe, parasite or virus in culture. The format is cell-based. Here is the method: as §1
The subject of series [9] is A. baumannii ATCC 19606. Nature of the series: microbe, parasite or virus in culture. Format: cell-based. On the procedure:
as §1

Series [10] has as its system E. faecalis ATCC 29212. The experiment in a line: microbe, parasite or virus in culture. Format: cell-based. On the procedure: as §1
Series [11] is described as follows: circular dichroism. The settings on record: water; pH ns; 25 °C; 150 uM. For orientation: Circular dichroism is the unequal absorption of left and right circularly polarised light.
Series [12] is classed as cell-based, human. The settings on record: human; for viability at 2 h, 3.12 µM / viability at 2 h, 6.25 µM / viability at 2 h, 12.5 µM / viability at 2 h, 25 µM / viability at 2 h, 50 µM / viability at 2 h, 100 µM / viability at 24 h, 3.12 µM / viability at 24 h, 6.25 µM / viability at 24 h, 12.5 µM / viability at 24 h, 25 µM / viability at 24 h, 50 µM / viability at 24 h, 100 µM: Cell viability (%). Here is the method:
(§2) For the evaluation of peptides’ cytotoxicity, the human immortalized keratinocytes (HaCaT cells), purchased from AddexBio (San Diego, CA, USA), and BEAS-2B were used. HaCaT cells were cultured in Dulbecco’s modified Eagle’s medium supplemented with 4 mM glutamine (DMEM), 10% heat-inactivated fetal bovine serum (FBS), and 0.1 mg/mL of penicillin and streptomycin, at 37 °C and 5% CO2. BEAS-2B cells were cultured in RPMI, supplemented with 2 mM glutamine (DMEM), 10% heat-inactivated fetal bovine serum (FBS), 1 mM sodium pyruvate, and 0.1 mg/mL of penicillin and streptomycin, at 37 °C and 5% CO2. Cytotoxicity was tested in vitro using a colorimetric assay that relies on the intracellular reduction of the yellow 3-(4,5-dimethylthiazol-2-yl)-2,5-diphenyltetrazolium bromide salt (MTT) by mitochondrial dehydrogenases of metabolically active cells in formazan crystals (purple). About 4 × 10^4 HaCaT and BEAS-2B cells, suspended in DMEM supplemented with 2% FBS, were plated in triplicate wells of a 96-well microtiter plate. The plate was incubated overnight at 37 °C and 5% CO2. Then, the cells were treated with different concentrations of the peptide (from 100 to 3.12 μM) in a fresh serum-free medium for 2 h and for a longer time (24 h). Following peptide treatment, the medium was removed, and MTT (0.5 mg/mL) solution in Hank’s buffer (136 mM NaCl, 4.2 mM Na2HPO4, 4.4 mM KH2PO4, 5.4 mM KCl, 4.1 mM NaHCO3, pH 7.2, supplemented with 20 mM D-glucose) was added to each well of the plate, that was then incubated for 4 h at 37 °C and 5% CO2. The purple formazan crystals were dissolved using acidified 2-propanol and a microplate reader (Infinite M200; Tecan, Salzburg, Austria) was used to measure the absorbance of each well at 570 nm. The percentage of cell viability was calculated compared to the control, which consisted of cells without any peptide treatment (corresponding to 100% viability) and all data represent the mean of three independent experiments ± SEM.

In series [13] the test system is human keratinocytes (HaCaT cells). Format: cell-based. Here is the method:
as §2

Where two headings read alike, the source gives them in different places. Bridge positions count the residues as written; N and C are the ends. Square brackets hold non-standard residues; d marks the D form. Peptide text beside a SMILES is read from it. * marks the point of attachment. X1 = N=C(N)N[C@@H](Cc1ccccc1)C(=O)*

On to `O=C(O)c1cn(C2CC2)c2cc(N3CCNCC3)c(F)cc2c1=O` [Ciprofloxacin, reference compound], for which the MIC in series [1] (Staphylococcus epidermidis, ATCC12228, S. epidermidis ATCC 12228, antibiotic control, read-out: MIC) was 0.25 µg/mL; in [2] (Pseudomonas aeruginosa, P. aeruginosa PAO1, antibiotic control, read-out: MIC), 0.12 µg/mL; in series [3] (Pseudomonas aeruginosa, ATCC27853, P. aeruginosa ATCC 27853, antibiotic control, read-out: MIC) it was 0.5 µg/mL; in series [4] (Staphylococcus aureus, ATCC25923, S. aureus ATCC 25923, antibiotic control, read-out: MIC), 0.5 µg/mL; in [5] (Streptococcus agalactiae, ATCC27591, S. agalactiae ATCC 27591, antibiotic control, read-out: MIC) it was 0.5 µg/mL; in series [6] (Priestia megaterium, B. megaterium BM11, antibiotic control, read-out: MIC), 0.12 µg/mL. Moreover, the MIC was determined as 0.01 µg/mL in series [7] (Escherichia coli, ATCC25922, E. coli ATCC 25922, antibiotic control, read-out: MIC); 0.01 µg/mL in series [8] (Escherichia coli, E. coli D21, antibiotic control, read-out: MIC); 1 µg/mL in series [9] (Acinetobacter baumannii, ATCC19606, A. baumannii ATCC 19606, antibiotic control, read-out: MIC); 0.5 µg/mL in series [10] (Enterococcus faecalis, ATCC29212, E. faecalis ATCC 29212, antibiotic control, read-out: MIC).
What is called CC50 is the concentration giving 50% cytotoxicity. A lower CC50 goes with greater toxicity to the cells. As usually defined, the viability is a read-out of living cells in per cent, often relative to untreated cells. `CC[C@H](C)[C@H](NC(=O)[C@H](CCCNC(=N)N)NC(=O)[C@H]1CCC(=O)NCCCC[C@H](NC(=O)[C@H](Cc2ccccc2)NC(=O)[C@H](Cc2c[nH]c3ccccc23)NC(=O)[C@@H]2CCCN2C(=O)[C@@H](NC(=O)[C@H](Cc2ccccc2)NC(=N)N)C(C)C)C(=O)N[C@@H](CCCCN)C(=O)N[C@@H](Cc2ccccc2)C(=O)N[C@H](CC(C)C)C(=O)N1)C(=O)N[C@@H](CC(C)C)C(N)=O` [Peptide 3, guanidino-FVPWF[KKFle]RIL] (X1-VPWFKKF[dL][dE]RIL-NH2; lactam 5-9) returned a helicity in series [11] of 1%. Also, in series [12], it took 38.6 µM to reach half-maximal cytotoxicity (CC50 at 24 h); the viability at 2 h, 3.12 µM stood at 126%; the viability at 2 h, 6.25 µM turned out to be 137%; the viability at 2 h, 12.5 µM came to 125%. In [12], the viability at 2 h, 25 µM turned out to be 104%; the viability at 2 h, 50 µM is 52%; the viability at 2 h, 100 µM stood at 5%; the viability at 24 h, 3.12 µM amounted to 93 ± 9%. In addition, in series [12], the viability at 24 h, 6.25 µM came to 105 ± 2%; the viability at 24 h, 12.5 µM turned out to be 107 ± 8%; the viability at 24 h, 25 µM worked out at 86 ± 5%; the viability at 24 h, 50 µM turned out to be 29 ± 2%. Also, in series [12], the viability at 24 h, 100 µM was determined as 4 ± 1%. The MIC in [1] (ATCC 12228) was determined as 3.12 µM. Moreover, the MIC in series [2] (PAO1) was 50 µM. This compound showed an MIC in series [3] (ATCC 27853) of 100 µM. In series [4] (ATCC 25923), this compound had an MIC of 6.25 µM. In addition, the MIC in series [5] (ATCC 27591) came out at 3.12 µM. Besides, the MIC in series [6] (BM11) amounted to 0.78 µM. The compound further returned an MIC in [7] (ATCC 25922) of 6.25 µM. In addition, the MIC in series [8] (D21) stood at 6.25 µM. For the same compound, in series [9] (ATCC 19606), the MIC amounted to 3.12 µM. Moreover, the MIC in series [10] (ATCC 29212) stood at 25 µM.
For the compound `CC[C@H](C)[C@H](NC(=O)[C@H](CCCNC(=N)N)NC(=O)[C@@H]1CCCNC(=N)NCCC[C@H](NC(=O)[C@H](Cc2ccccc2)NC(=O)[C@H](Cc2c[nH]c3ccccc23)NC(=O)[C@@H]2CCCN2C(=O)[C@@H](NC(=O)[C@@H](N)Cc2ccccc2)C(C)C)C(=O)N[C@@H](CCCCN)C(=O)N[C@@H](Cc2ccccc2)C(=O)N[C@H](CC(C)C)C(=O)N1)C(=O)N[C@@H](CC(C)C)C(N)=O` [Peptide 13, FVPWF{OrnKFlOrn}RIL], the helicity in series [11] was 10%. Further, in [12], the CC50 at 24 h turned out to be 19.7 µM; the viability at 2 h, 3.12 µM was found to be 107%; the viability at 2 h, 6.25 µM amounted to 104%; the viability at 2 h, 12.5 µM was determined as 76%. For the same compound, in [12], the viability at 2 h, 25 µM is 31%; the viability at 2 h, 50 µM came to 7%; the viability at 2 h, 100 µM turned out to be 2%; the viability at 24 h, 3.12 µM is 103 ± 2%. In addition, in [12], the viability at 24 h, 6.25 µM is 103 ± 3%; the viability at 24 h, 12.5 µM was found to be 97 ± 2%; the viability at 24 h, 25 µM stood at 22 ± 2%; the viability at 24 h, 50 µM came to 2 ± 1%. For the same compound, the viability at 24 h, 100 µM in series [12] was 3 ± 1%. The “cytotoxicity (in words)” value in series [13] is recorded as “Low cytotoxicity (up to 25 μM)”. The MIC in [1] (ATCC 12228) amounted to 1.56 µM. In addition, the MIC in series [3] (ATCC 27853) was found to be 50 µM. Further, the MIC in series [4] (ATCC 25923) amounted to 6.25 µM. Besides, the MIC in series [5] (ATCC 27591) worked out at 1.56 µM. The same compound came in with an MIC in series [6] (BM11) of 0.39 µM. The compound further showed an MIC in series [7] (ATCC 25922) of 6.25 µM. In [8] (D21), the MIC came to 6.25 µM. The MIC in [9] (ATCC 19606) is 1.56 µM. Moreover, the MIC in [10] (ATCC 29212) is 6.25 µM.

The values above are taken from article PMC12703733, “Probing Guanidino Pendant or Bridged Groups in Cyclic Antimicrobial Peptides Derived from Temporin L: A Strategy to Improve Efficacy against Gram-Negative Bacteria” (Journal of Medicinal Chemistry, 2025).
